We go through 19 molecules from PubChem BioAssay (NCI).

Some test systems named below: IGROV1 ovarian; DU-145 prostate; SNB-19 CNS; UACC-62 melanoma; NCI-H460 lung; MDA-MB-231 breast; HCT-15 colon; COLO 205 colon; HCC-2998 colon; SF-539 CNS; SNB-75 CNS; MOLT-4 leukemia; HL-60(TB) leukemia.
What all share (experiment): NCI-60 cell line screen, 48 h

Molecules are shown by their SMILES.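 Tested at 5 concentrations; 48 h exposure; 96-well plates; endpoints linearly interpolated, else capped at highest concentration. TGI marks complete inhibition of growth.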

For the molecule `COC(=N)c1ncn(Cc2ccccc2)c1N`, the TGI with IGROV1 ovarian, in the test with DU-145 prostate, in the test with SNB-19 CNS, in the test with UACC-62 melanoma, with NCI-H460 lung and with MDA-MB-231 breast was more than 100 µM in each case. Also, the TGI with HCT-15 colon, with COLO 205 colon, in the test with HCC-2998 colon, with SF-539 CNS and with SNB-75 CNS was more than 100 µM each time.
On to `CC(=O)N1N=C(c2ccc3ccccc3c2O)CC1c1ccc(Cl)cc1Cl` (configuration not stated), for which the TGI with IGROV1 ovarian, with MOLT-4 leukemia, in the test on DU-145 prostate, in the test with UACC-62 melanoma, in the test on NCI-H460 lung and in the test with MDA-MB-231 breast was more than 100 µM each time. Further, the TGI was more than 100 µM in the test with HCT-15 colon; more than 100 µM in the test on COLO 205 colon; more than 100 µM with HCC-2998 colon; 50.6 µM with SF-539 CNS; more than 100 µM in the test with SNB-75 CNS.
Regarding `NC(CCC(=O)NC(CSC(=O)N(O)c1ccc(Cl)cc1)C(=O)NCC(=O)O)C(=O)O` (configuration not stated), the TGI with IGROV1 ovarian, with MOLT-4 leukemia, with DU-145 prostate, in the test on SNB-19 CNS, with UACC-62 melanoma and in the test on NCI-H460 lung was more than 0.5 µM in each case. Further, the TGI in the test with MDA-MB-231 breast, in the test on HCT-15 colon, in the test with COLO 205 colon, with HCC-2998 colon, in the test on SF-539 CNS and in the test with SNB-75 CNS was more than 0.5 µM each time.
As to `Clc1cc2nnn(C3CCCCO3)c2cc1Cl` (configuration not stated), the TGI in the test with IGROV1 ovarian, in the test on MOLT-4 leukemia, in the test with DU-145 prostate, in the test with SNB-19 CNS, in the test with UACC-62 melanoma and in the test on NCI-H460 lung was more than 100 µM in each case. The TGI in the test with MDA-MB-231 breast, in the test on HCT-15 colon, with COLO 205 colon, in the test on HCC-2998 colon, in the test with SF-539 CNS and in the test with SNB-75 CNS was more than 100 µM throughout.
Take `Cc1ccc(C)c(NC(=O)/C(=N\N)C(c2cnc3ccc([N+](=O)[O-])cc3n2)[N+](=O)[O-])c1` (configuration not stated): the TGI with HL-60(TB) leukemia, in the test with IGROV1 ovarian, with MOLT-4 leukemia, with UACC-62 melanoma, with NCI-H460 lung and with MDA-MB-231 breast was more than 100 µM throughout. The TGI with HCT-15 colon, in the test on HCC-2998 colon, in the test on SF-539 CNS and with SNB-75 CNS was more than 100 µM each time.
With `O=C1C=Cc2c1csc2Br`, the TGI was more than 100 µM in the test with IGROV1 ovarian; 54.7 µM in the test on MOLT-4 leukemia; more than 100 µM in the test on DU-145 prostate; more than 100 µM with SNB-19 CNS; more than 100 µM in the test on UACC-62 melanoma; more than 100 µM with NCI-H460 lung. For the same molecule, the TGI in the test on MDA-MB-231 breast, in the test on HCT-15 colon, with COLO 205 colon and in the test on SNB-75 CNS was more than 100 µM in each case.
On to `CN(C)C=NCc1ccc2c(c1)OCO2`, for which the TGI with IGROV1 ovarian, in the test on MOLT-4 leukemia, with DU-145 prostate, with SNB-19 CNS, in the test with UACC-62 melanoma and in the test on NCI-H460 lung was more than 100 µM each time. Further, the TGI in the test with MDA-MB-231 breast, in the test on HCT-15 colon, in the test with COLO 205 colon, with HCC-2998 colon, in the test on SF-539 CNS and with SNB-75 CNS was more than 100 µM each time.
`CCOC(=O)CCC(NC(=O)c1ccc(OCc2ccc3nc(OC)c(OC)nc3c2)cc1)C(=O)OCC` (configuration not stated): the TGI in the test on HL-60(TB) leukemia is 73.5 µM; with IGROV1 ovarian, more than 100 µM; with MOLT-4 leukemia it was more than 100 µM; in the test on DU-145 prostate it was more than 100 µM; with SNB-19 CNS it was more than 100 µM; with UACC-62 melanoma it was more than 100 µM. Besides, the TGI with NCI-H460 lung is more than 100 µM; with HCT-15 colon, more than 100 µM; in the test on COLO 205 colon it was 32.8 µM; with HCC-2998 colon, more than 100 µM; with SF-539 CNS, more than 100 µM; in the test on SNB-75 CNS, more than 100 µM.
With `COc1ccc(N2C(=O)C(C#N)=C(SC)C(C#N)C2=O)cc1` (configuration not stated), the TGI in the test with IGROV1 ovarian, in the test with MOLT-4 leukemia, in the test with SNB-19 CNS, with UACC-62 melanoma, with NCI-H460 lung and in the test with MDA-MB-231 breast was more than 100 µM each time. Besides, the TGI with HCT-15 colon, with COLO 205 colon, with HCC-2998 colon, with SF-539 CNS and in the test on SNB-75 CNS was more than 100 µM in each case.
Regarding `c1csc(-c2ccc(-c3ccsc3)s2)c1`, the TGI with HL-60(TB) leukemia, with IGROV1 ovarian, in the test on MOLT-4 leukemia, in the test with SNB-19 CNS, in the test on UACC-62 melanoma and in the test on NCI-H460 lung was more than 100 µM in each case. In addition, the TGI in the test with MDA-MB-231 breast, in the test with HCT-15 colon, in the test on COLO 205 colon, in the test with HCC-2998 colon, in the test with SF-539 CNS and with SNB-75 CNS was more than 100 µM in each case.
As for `c1ccc(N=C2C(=Nc3ccccc3)N(C3CCCCC3)C(=NC3CCCCC3)N2c2ccccc2)cc1`, the TGI in the test with HL-60(TB) leukemia, in the test on IGROV1 ovarian, in the test with MOLT-4 leukemia, in the test on SNB-19 CNS, in the test with NCI-H460 lung and in the test with MDA-MB-231 breast was more than 100 µM in each case. The TGI in the test on HCT-15 colon, with COLO 205 colon, in the test with HCC-2998 colon and in the test with SNB-75 CNS was more than 100 µM throughout.
On to `COc1ccc2[nH]c3c(C)c4ccnc(NCCCN(C)CCCN)c4c(C)c3c2c1`, for which the TGI in the test on IGROV1 ovarian is 0.678 µM; in the test on MOLT-4 leukemia it was more than 100 µM; in the test with DU-145 prostate, 0.652 µM; in the test on SNB-19 CNS it was 0.403 µM; with UACC-62 melanoma, 0.479 µM; in the test with NCI-H460 lung, 0.213 µM. Besides, the TGI in the test with MDA-MB-231 breast is 0.248 µM; in the test on HCT-15 colon, 1.47 µM; with COLO 205 colon, 0.253 µM; in the test with HCC-2998 colon, 0.376 µM; in the test with SF-539 CNS, 0.28 µM; in the test with SNB-75 CNS, 0.0976 µM.
Regarding `CNC(=O)C1CCC(=O)N1CN(C(C)=O)c1ccccc1` (configuration not stated), the TGI in the test on IGROV1 ovarian, in the test with MOLT-4 leukemia, with DU-145 prostate, in the test on SNB-19 CNS, in the test with UACC-62 melanoma and in the test on NCI-H460 lung was more than 100 µM throughout. For the same molecule, the TGI in the test on MDA-MB-231 breast, in the test with HCT-15 colon, with COLO 205 colon, in the test on SF-539 CNS and in the test with SNB-75 CNS was more than 100 µM each time.
In the case of `COc1ccc(C(=O)/C=C/c2ccc(OCC#N)cc2)cc1OC`, the TGI in the test with IGROV1 ovarian was more than 100 µM; with MOLT-4 leukemia, 63.6 µM; in the test with DU-145 prostate it was 23.8 µM; with SNB-19 CNS it was 29.9 µM; in the test with UACC-62 melanoma it was 36.7 µM; with NCI-H460 lung, more than 100 µM. Moreover, the TGI in the test with MDA-MB-231 breast came to 42.2 µM; in the test with HCT-15 colon it was 45.5 µM; with COLO 205 colon, 24.2 µM; with HCC-2998 colon, 33.3 µM; with SF-539 CNS, 36.9 µM; in the test with SNB-75 CNS, 22.9 µM.
For `c1ccc2c(c1)ccc1nc3ccccn3c12`, the TGI with HL-60(TB) leukemia, in the test with IGROV1 ovarian, with MOLT-4 leukemia, with DU-145 prostate, with SNB-19 CNS and in the test on UACC-62 melanoma was more than 100 µM each time. For the same molecule, the TGI in the test with NCI-H460 lung, in the test on HCT-15 colon, with COLO 205 colon, with HCC-2998 colon, with SF-539 CNS and with SNB-75 CNS was more than 100 µM in each case.
As for `CCOC(=O)C1=COC(C)(C)CC1=O`, the TGI with MOLT-4 leukemia, with DU-145 prostate, in the test with SNB-19 CNS, in the test with UACC-62 melanoma, with NCI-H460 lung and in the test with MDA-MB-231 breast was more than 100 µM each time. Besides, the TGI in the test on HCT-15 colon, with COLO 205 colon, with SF-539 CNS and in the test on SNB-75 CNS was more than 100 µM throughout.
On to `O=C(OCC(Cl)(Cl)Cl)N1CC[C@@H](C2CCCCC2)C1`, for which the TGI in the test on IGROV1 ovarian was more than 100 µM; with MOLT-4 leukemia, 56.4 µM; in the test on DU-145 prostate, more than 100 µM; with SNB-19 CNS, 38.6 µM; in the test on UACC-62 melanoma, 85.5 µM; in the test with NCI-H460 lung, 43.8 µM. Also, the TGI was more than 100 µM in the test with MDA-MB-231 breast; 35.9 µM with HCT-15 colon; 56.3 µM in the test with COLO 205 colon; 36.7 µM with HCC-2998 colon; 48.7 µM with SNB-75 CNS.
On to `O=C(/C=C/c1cc(F)ccc1F)OCCc1ccccc1`, for which the TGI was 79.9 µM in the test on HL-60(TB) leukemia; more than 100 µM with IGROV1 ovarian; more than 100 µM in the test with MOLT-4 leukemia; more than 100 µM in the test with SNB-19 CNS; more than 100 µM with UACC-62 melanoma; more than 100 µM with MDA-MB-231 breast. Besides, the TGI in the test on HCT-15 colon, with COLO 205 colon, in the test on HCC-2998 colon, with SF-539 CNS and in the test with SNB-75 CNS was more than 100 µM in each case.
`Cc1ccc(S(=O)(=O)N/N=C2/C3C(CC2(C)C)C2(C)CCCC3(C)C2O)cc1` (configuration not stated): the TGI in the test with HL-60(TB) leukemia was more than 100 µM; with IGROV1 ovarian, 69.8 µM; in the test with MOLT-4 leukemia, 57.6 µM; with DU-145 prostate, more than 100 µM; with SNB-19 CNS it was 96.5 µM; with UACC-62 melanoma it was 30 µM. The TGI in the test on NCI-H460 lung turned out to be 37.7 µM; in the test with HCT-15 colon, 60 µM; with COLO 205 colon it was 31.8 µM; in the test on SNB-75 CNS it was 39.3 µM.
